Test results published in patent US7576071B2, “Antithrombotic compound” (sanofi-aventis, priority 2004, dated 2009).

What was measured:
[1] = system: Bovine factor Xa; test: Determination of anti-factor Xa activity in buffer (microtiter plate method, AT-III mediated); type: biochemical; settings: Kabi buffer, human AT-III
Description: II. Determination of Anti-Factor Xa Activity in Buffer
(Microtiter Plate Method)
Anticoagulants can inhibit Xa directly or, like heparin, by potentiating the inhibitory activity of AT-III. Anti-Xa activity can be assessed by determination of the rate of hydrolysis of the chromogenic substrate S-2222 in the presence of AT-III. This assay is used to determine anti-Xa activity of heparinoid preparations in Kabi buffer.
Test medium: Kabi buffer.
Ref. compound: International standard heparin (11.4 anti-Xa U/mg).
Composition of the buffer: NaCl 10.17 g (174 mmol); edetate disodium dihydrate 3.26 g (9.6 mmol); tromethamine (Tris) 6.11 g (50.4 mmol); made up to 1 L with ultrapure H2O *. The pH of the solution is adjusted to 7.4 with hydrochloric acid (0.10 mol/L)
Bovine factor Xa (Kabi Diagnostica, Stockholm, Sweden) is dissolved in Kabi buffer to give a solution containing 1.5 U/mL (0.75 nKat/mL). • 3. S-2222 solution
S-2222 (Kabi Diagnostica) is dissolved in ultrapure H2O to give a solution containing 0.375 mg/mL (0.5 mmol/L). • 4. AT-III solution
Human AT-III (Kabi Diagnostica) is dissolved in Kabi buffer to give a solution containing 0.25 U/mL. A fresh solution has to be prepared daily. • 5. Standard solution of the calibration sample
Standard heparin is dissolved in Kabi buffer to give a standard solution containing approx. 0.25 anti-Xa U/mL.
Each preparation is dissolved in ultrapure H2O and diluted with Kabi buffer to the required concentrations in the range of 0.02-0.2 anti-Xa U/mL
Each test sample (0.05 mL) is pipetted into a well of a microtiter plate at RT. AT-III solution (0.05 mL) is added to each sample and the plate is shaken using a Vari-shaker.
An aliquot of Xa solution (0.05 mL) is pipetted into each well 10 min following addition of AT-III solution and the plate is shaken again. Exactly 2 min following addition of Xa solution, 0.1 mL S-2222 solution is pipetted into each well and the plate is shaken again. For all additions a 12-channel pipette is used.
The remaining amount of Xa catalyses the hydrolysis of S-2222, the rate of which is measured photometrically following incubation periods of 2 and 22 min respectively at RT. The absorbance of each sample is measured at 405 nm using a Reader Microelisa, model 310C (Organon Teknika, Oss, The Netherlands) and the increase in absorbance (ΔOD) is calculated. Each test sample is determined in duplicate. With every 10 samples, a blank (0.05 mL Kabi buffer) is included.
From an aliquot of the standard solution of the calibration sample a range of dilutions is made (dilution factor 1,3 for heparin samples). The resulting standard samples (approx. 15 samples) should contain between 0.01-0.25 anti-Xa U/mL. […]
For each sample the mean anti-Xa activity in U/mL is determined using the calibration curve. […]

[2] = system: human platelets (platelet rich plasma), ADP-induced aggregation; test: In vitro test for inhibition of human platelet aggregation induced by ADP; type: cell-based; settings: 5 μM ADP; human PRP; mean of n experiments; entries marked b measured with a Chronolog aggregometer, others with micro plate reader; read-out: Inhibition of ADP-induced (5 μM) human platelet aggregation (IC50), mean
Description: I.a. In vitro Test for Inhibition of Human Platelet Aggregation Induced by ADP
Addition of adenosine diphosphate (ADP) to human platelet rich plasma (PRP) in vitro induces platelet aggregation. This aggregation can be assessed by measuring the optical density (OD) of the PRP. The in vitro test described here was used to determine the inhibitory activity of a test compound on the ADP-induced aggregation of human platelets. A micro plate reader is used to measure the activity of several compounds simultaneously.
An alternative vehicle is 0.9% NaCl in MQ H2O. The compound solution (either in MQ H2O or 0.9% NaCl in MQ H2O) is further diluted in 0.9% NaCl in MQ H2O.
Free-flowing blood (at least 100 mL) is taken from a healthy volunteer and collected in 0.1 volume 3.8% sodium citrate. 2H2O in distilled H2O (w/v). The final concentration is 0.38% sodium citrate.
The citrated blood is centrifuged at 1,600 N/kg (160 g) at RT. After 15 min, centrifugation is discontinued with the brake turned off and the supernatant (=PRP) is collected. • 2. ADP (Kordia/Chrono-par # 384). Before use, a solution of 50 μM in 0.9% NaCl is prepared. Equipment • 1. Sysmex blood cell counter model KX-21. • 2. Labsystems iEMS reader MF with a 620 nm filter, an orbital shaker set at 1,000 rpm and a constant temperature of 37° C. Absorption is measured with the Labsystems iEMS program. • 3. Blood collection system 600 mL with needle, art P4203 (NPBI). • 4. 96 wells flat bottom micro plates (Greiner Labortechnik). Procedure
The platelets in the supernatant (PRP) are counted using a Sysmex blood cell counter and the supernatant is diluted with PPP to obtain a PRP containing 400,000±50,000 plt/μL. PRP should stabilize at RT for at least 20 min but not longer than 3 h.
150 μL PRP is pipetted into a well of the micro plate. 30 μL test compound in a range of concentrations (7 concentrations per compound) or vehicle is added and the micro plate is placed in the Labsystems iEMS reader MF at 37° C. The optical density (OD620) is then measured at 620 nm. After shaking for 2 min in the reader (1,000 rpm), the OD is measured for the second time. This is to verify the stability of the platelets (absence of spontaneous platelet aggregation). Then, 20 μL of 50 μM ADP solution is added and the OD is kinetically measured every min for 14 min at 620 nm (FIG. 1). Between two measurements, the plate is shaking for 40 seconds at 1,000 rpm. Each test compound is investigated in at least 2 experiments using PRP from different volunteers.
The mean OD at each compound concentration (including vehicle) is calculated at t=0 min and t=10 min. The percentage inhibition at each concentration is calculated using the formula: […]
The IC50 of the test compound is the concentration of the test compound at which the ADP-induced platelet aggregation is reduced by 50%. For this, the percentage inhibition values are plotted against compound concentration. Then, IC50, nH (Hill slope) and efficacy of the test compound is calculated using Graphpad Prism 3.0 (with variable slope).
Reference: Salmon, D. M. (1996) Thrombosis Research 84, 213-216.

IC50 [2]: 630 nM
Substance: Methyl O-2,3-di-O-methyl-4-O-<<12-N-<N-(3-keto-benzenesulfonyl)-4-O-{4-(4-piperidinyl)-butyl}-L-tyrosine>-12-aza-3,6,9-trioxa-dodecyl>>-6-O-sulfo-alpha-D-glucopyranosyl-(1->4)-O-2,3-di-O-methyl-beta-D-glucopyranuronosyl-(1->4)-O-2,3,6-tri-O-sulfo-alpha-D-glucopyranosyl-(1->4)-O-2,3-di-O-methyl-alpha-L-idopyranuronosyl-(1>4)-3-O-methyl-2,6-di-O-sulfo-alpha-D-glucopyranoside octakis sodium salt [XIV]
Anti-Xa activity ([1]; substrate S-2222, calibrated against standard heparin): 735 ± 107 U/mg
Anti-Xa activity ([1]; substrate S-2222, per nmol (from U/mg and Mw)): 1.68 U/nmol
